Test results from patent publication US10428082B2, “Triazole derivatives of melampomagnolide B and methods of use thereof” (BioVentures, LLC, priority 2016, dated 2019).

Legend:
Experiment in all cases: NCI 60 growth inhibition
Format in all cases: cell-based, human
786-0 = conditions: Homo sapiens; 786-0, Renal Cancer, Table 2
Description: (§1) The above triazole derivatives of melampomagnolide B were evaluated for growth inhibitory properties against an NCI panel of 60 human cancer cell lines derived from nine human cancer cell types, grouped into disease sub-panels that represent leukemia, lung, colon, central nervous system (CNS), melanoma, renal, ovary, breast, and prostate cancer cells. Growth inhibitory (GI50) effects were measured as a function of the variation of optical density as a percentage of control.

A549/ATCC = conditions: Homo sapiens, Non-Small Cell Lung Cancer, Table 2
Description: as §1

ACHN = conditions: Homo sapiens, Renal Cancer, Table 2
Description: as §1

CCRF-CEM = conditions: Homo sapiens, Leukemia, Table 2
Description: as §1

COLO 205 = conditions: Homo sapiens; COLO 205, Colon Cancer, Table 2
Description: as §1

DU-145 = conditions: Homo sapiens; DU-145, Prostate Cancer, Table 2
Description: as §1

EKVX = conditions: Homo sapiens, Non-Small Cell Lung Cancer, Table 2
Description: as §1

HCC-2998 = conditions: Homo sapiens; HCC-2998, Colon Cancer, Table 2
Description: as §1

HCT-15 = conditions: Homo sapiens; HCT-15, Colon Cancer, Table 2
Description: as §1

HOP-62 = conditions: Homo sapiens; HOP-62, Non-Small Cell Lung Cancer, Table 2
Description: as §1

HS 578T = conditions: Homo sapiens, Breast Cancer, Table 2
Description: as §1

LOX IMVI = conditions: Homo sapiens, Melanoma, Table 2
Description: as §1

M14 = conditions: Homo sapiens; M14, Melanoma, Table 2
Description: as §1

MALME-3M = conditions: Homo sapiens, Melanoma, Table 2
Description: as §1

MCF7 = conditions: Homo sapiens; MCF7, Breast Cancer, Table 2
Description: as §1

MDA-MB-435 = conditions: Homo sapiens; MDA-MB-435, Melanoma, Table 2
Description: as §1

MDA-MB-468 = conditions: Homo sapiens; MDA-MB-468, Breast Cancer, Table 2
Description: as §1

MOLT-4 = conditions: Homo sapiens; MOLT-4, Leukemia, Table 2
Description: as §1

NCI-H226 = conditions: Homo sapiens; NCI-H226, Non-Small Cell Lung Cancer, Table 2
Description: as §1

NCI-H23 = conditions: Homo sapiens; NCI-H23, Non-Small Cell Lung Cancer, Table 2
Description: as §1

NCI-H322M = conditions: Homo sapiens, Non-Small Cell Lung Cancer, Table 2
Description: as §1

NCI-H460 = conditions: Homo sapiens; NCI-H460, Non-Small Cell Lung Cancer, Table 2
Description: as §1

NCI-H522 = conditions: Homo sapiens; NCI-H522, Non-Small Cell Lung Cancer, Table 2
Description: as §1

NCI/ADR-RES = conditions: Homo sapiens, Ovarian Cancer, Table 2
Description: as §1

OVCAR-4 = conditions: Homo sapiens; OVCAR-4, Ovarian Cancer, Table 2
Description: as §1

OVCAR-5 = conditions: Homo sapiens; OVCAR-5, Ovarian Cancer, Table 2
Description: as §1

OVCAR-8 = conditions: Homo sapiens; OVCAR-8, Ovarian Cancer, Table 2
Description: as §1

PC-3 = conditions: Homo sapiens; PC-3, Prostate Cancer, Table 2
Description: as §1

RPMI-8226 = conditions: Homo sapiens; RPMI-8226, Leukemia, Table 2
Description: as §1

SF-268 = conditions: Homo sapiens; SF-268, CNS Cancer, Table 2
Description: as §1

SF-295 = conditions: Homo sapiens; SF-295, CNS Cancer, Table 2
Description: as §1

SF-539 = conditions: Homo sapiens; SF-539, CNS Cancer, Table 2
Description: as §1

SK-MEL-2 = conditions: Homo sapiens; SK-MEL-2, Melanoma, Table 2
Description: as §1

SK-MEL-5 = conditions: Homo sapiens; SK-MEL-5, Melanoma, Table 2
Description: as §1

SW-620 = conditions: Homo sapiens; SW-620, Colon Cancer, Table 2
Description: as §1

TK-10 = conditions: Homo sapiens; TK-10, Renal Cancer, Table 2
Description: as §1

U251 = conditions: Homo sapiens, U-251; U251, CNS Cancer, Table 2
Description: as §1

UACC-257 = conditions: Homo sapiens; UACC-257, Melanoma, Table 2
Description: as §1

UACC-62 = conditions: Homo sapiens; UACC-62, Melanoma, Table 2
Description: as §1

UO-31 = conditions: Homo sapiens; UO-31, Renal Cancer, Table 2
Description: as §1

Row | SMILES | GI50 (786-0) [µM] | GI50 (A549/ATCC) [µM] | GI50 (ACHN) [µM] | GI50 (CCRF-CEM) [µM] | GI50 (COLO 205) [µM] | GI50 (DU-145) [µM] | GI50 (EKVX) [µM] | GI50 (HCC-2998) [µM] | GI50 (HCT-15) [µM] | GI50 (HOP-62) [µM] | GI50 (HS 578T) [µM] | GI50 (LOX IMVI) [µM] | GI50 (M14) [µM] | GI50 (MALME-3M) [µM] | GI50 (MCF7) [µM] | GI50 (MDA-MB-435) [µM] | GI50 (MDA-MB-468) [µM] | GI50 (MOLT-4) [µM] | GI50 (NCI-H226) [µM] | GI50 (NCI-H23) [µM] | also measured
1 | C=C1C(=O)O[C@H]2[C@H]1CC/C(Cn1cc(-c3ccccc3)nn1)=C\CC[C@@]1(C)O[C@@H]21 [JVM 3-74, (1aR,7aS,10aS,10bS,E)-1a-Methyl-8-methylene-5-((4-phenyl-1H-1,2,3-triazol-1-yl)methyl)-2,3,6,7,7a,8,10a,10b-octahydrooxireno[2′,3′:9,10]cyclodeca[1,2-b]furan-9(1aH)-one] | 2.63 | 5.88 | 0.94 | 0.99 | 1.08 | 2.19 | 6.87 | 6.16 | 0.77 | 7.41 | 9.78 | 0.8 | 1.78 | 1.17 | 1.08 | 2.37 | 0.95 | 1.29 | 4.6 | 5.38 | GI50 (NCI-H322M): 7.79 µM; GI50 (NCI-H460): 7.74 µM; GI50 (NCI-H522): 0.81 µM; GI50 (NCI/ADR-RES): 6.17 µM; GI50 (OVCAR-4): 3.22 µM; GI50 (OVCAR-5): 5.7 µM; GI50 (OVCAR-8): 2.31 µM; GI50 (PC-3): 5.65 µM; GI50 (RPMI-8226): 1.71 µM; GI50 (SF-268): 5.63 µM; GI50 (SF-295): 7.89 µM; GI50 (SF-539): 2.01 µM; GI50 (SK-MEL-2): 5.5 µM; GI50 (SK-MEL-5): 7.32 µM; GI50 (SW-620): 1.5 µM; GI50 (TK-10): 1.21 µM; GI50 (U251): 7.96 µM; GI50 (UACC-257): 3.78 µM; GI50 (UACC-62): 1.87 µM; GI50 (UO-31): 0.87 µM
2 | C=C1C(=O)O[C@H]2[C@H]1CC/C(Cn1cc(-c3ccc(OC)cc3)nn1)=C\CC[C@@]1(C)O[C@@H]21 [JVM 4-24, (1aR,7aS,10aS,10bS,E)-5((4-(4-Methoxyphenyl)-1H-1,2,3-triazol-1-yl)methyl)-1a-methyl-8-methylene-2,3,6,7,7a,8,10a,10b-octahydrooxireno[2′,3′:9,10]cyclodeca[1,2-b]furan-9(1aH)-one] | 1.24 | 10.9 | 0.29 | 0.29 | 0.5 | 1.11 | 2.47 | 1.98 | 0.33 | 10.5 | 7.42 | 1.16 | 1.3 | 1.67 | 0.42 | 1.14 | 0.89 | 1.13 | 1.99 | 2.06 | GI50 (NCI-H322M): 10.7 µM; GI50 (NCI-H460): 8.45 µM; GI50 (NCI-H522): 0.38 µM; GI50 (NCI/ADR-RES): 3.08 µM; GI50 (OVCAR-4): 1.52 µM; GI50 (OVCAR-5): 1.71 µM; GI50 (OVCAR-8): 2.59 µM; GI50 (PC-3): 9.35 µM; GI50 (RPMI-8226): 1.87 µM; GI50 (SF-268): 2.07 µM; GI50 (SF-295): 11 µM; GI50 (SF-539): 0.34 µM; GI50 (SK-MEL-2): 1.95 µM; GI50 (SK-MEL-5): 2.1 µM; GI50 (SW-620): 0.49 µM; GI50 (TK-10): 1.42 µM; GI50 (U251): 9.45 µM; GI50 (UACC-257): 1.78 µM; GI50 (UACC-62): 1.35 µM; GI50 (UO-31): 1.27 µM
3 | C=C1C(=O)O[C@H]2[C@H]1CC/C(Cn1cc(-c3cccc(Cl)c3)nn1)=C\CC[C@@]1(C)O[C@@H]21 [JVM 4-25, (1aR,7aS,10aS,10bS,E)-5((4-(3-Chlorophenyl)-1H-1,2,3-triazol-1-yl)methyl)-1a-methyl-8-methylene-2,3,6,7,7a,8,10a,10b-octahydrooxireno[2′,3′:9,10]cyclodeca[1,2-b]furan-9(1aH)-one] | 0.5 | 1.79 | 0.18 | 0.2 | 0.41 | 1 | 1.57 | 1.64 | 0.19 | 1.94 | 2.26 | 0.28 | 0.79 | 1.2 | 0.31 | 0.59 | 0.56 | 0.31 | 1.71 | 1.58 | GI50 (NCI-H322M): 2.17 µM; GI50 (NCI-H460): 2.13 µM; GI50 (NCI-H522): 0.29 µM; GI50 (NCI/ADR-RES): 2.39 µM; GI50 (OVCAR-4): 1.09 µM; GI50 (OVCAR-5): 1.21 µM; GI50 (OVCAR-8): 1.31 µM; GI50 (PC-3): 1.98 µM; GI50 (RPMI-8226): 0.5 µM; GI50 (SF-268): 1.59 µM; GI50 (SF-295): 3.41 µM; GI50 (SF-539): 0.25 µM; GI50 (SK-MEL-2): 1.66 µM; GI50 (SK-MEL-5): 1.7 µM; GI50 (SW-620): 0.33 µM; GI50 (TK-10): 0.99 µM; GI50 (U251): 1.61 µM; GI50 (UACC-257): 1.42 µM; GI50 (UACC-62): 0.62 µM; GI50 (UO-31): 1.08 µM
